Assay results published in US8633246B2, “Omega-3 fatty acids for osteoarthritis” (Hill's Pet Nutrition, Inc., priority 2003, dated 2014).

Columns and labels:
Assay type in all cases: cell-based, dog
[1] = system: canine cartilage; assay: Proteoglycan synthesis, 35SO4 incorporation into cartilage matrix; details: no catabolic stimuli
Procedure: (§1) To assess the potential effect of n-3 fatty acids on protein and proteoglycan metabolism in canine cartilage, cultures were set up as described in Example 1 except for the final 4 days of culture, no catabolic stimuli were added (i.e., all “control” cultures). During the final 24 hours of culture (1) ^35SO4, or (ii) ^35S-methionine and ^35S-cysteine, were added to the medium to radiolabel newly synthesized proteoglycans and proteins, respectively. The incorporation of radiolabel into the cartilage matrix was measured at the termination of culture. No attempt was made to quantitate loss of radiolabelled material from the cartilage over the 24-hour labeling period. The mean and standard deviation of the incorporation of ^35SO4 (“PG”) or ^35S-methionine and ^35S-cysteine (“PROT”) as DPM/mg wet weight are shown in Table 5 below, […]

[2] = system: canine cartilage; assay: Protein synthesis, 35S-methionine and 35S-cysteine incorporation into cartilage matrix; details: no catabolic stimuli
Procedure: as §1

[3] = system: canine articular cartilage explants; assay: Glycosaminoglycan (GAG) release from cultured canine cartilage explants
Procedure: This example illustrates the release of glycosaminoglycan elicited by omega-3 fatty acids in cultured canine cartilage tissue.
Articular cartilage was obtained from left and right stifles (both femoral condyles and tibial plateau) of dogs. Cartilage explants cultured for 3 days in medium with 10% fetal bovine serum, then washed 3 times in serum free medium. Explants then cultured for 6 days in serum free medium containing 0, 100 or 300 μg/ml n3 fatty acid (EPA, ALA or DHA). After this period in fatty acid medium, all explants were washed 3 times in fatty acid free/serum free medium. Explants were then cultured individually for 4 days in 1 ml of fatty acid and serum free medium containing no additives (C), 10^−6M retinoic acid (RA) or 50 ng/ml oncostatin M (OSM). Note that not all treatments were possible on all dogs because of cartilage availability. The release of proteoglycan into the medium (μg/mg wet weight) was measured at the termination of culture. In the tables below, the mean and standard deviation of glycosaminoglycan (GAG) release for the triplicate cultures for each of the 4 dogs are given. In addition, the media lactate (μg/mg wet weight) concentrations were given for each treatment.

Row | Compound | PG Mean (incorporation of 35SO4) ([1]; 100 μg/ml) | PG Mean (incorporation of 35SO4) ([1]; 300 μg/ml) | PROT Mean (incorporation of 35S-methionine and 35S-cysteine) ([2]; 100 μg/ml) | PROT Mean (incorporation of 35S-methionine and 35S-cysteine) ([2]; 300 μg/ml) | GAG Mean ([3]; Dog 2, C, 100 μg/ml) | GAG Mean ([3]; Dog 2, C, 300 μg/ml) | GAG Mean ([3]; Dog 2, OSM, 100 μg/ml) | GAG Mean ([3]; Dog 2, OSM, 300 μg/ml) | GAG Mean ([3]; Dog 3, C, 100 μg/ml) | GAG Mean ([3]; Dog 3, C, 300 μg/ml) | GAG Mean ([3]; Dog 3, OSM, 100 μg/ml) | GAG Mean ([3]; Dog 3, OSM, 300 μg/ml) | GAG Mean ([3]; Dog 3, RA, 100 μg/ml) | GAG Mean ([3]; Dog 3, RA, 300 μg/ml) | GAG Mean ([3]; Dog 4, C, 100 μg/ml) | GAG Mean ([3]; Dog 4, C, 300 μg/ml) | GAG Mean ([3]; Dog 4, OSM, 100 μg/ml) | GAG Mean ([3]; Dog 4, OSM, 300 μg/ml) | GAG Mean ([3]; Dog 4, RA, 100 μg/ml) | GAG Mean ([3]; Dog 4, RA, 300 μg/ml) | also measured
1 | CC/C=C\C/C=C\C/C=C\C/C=C\C/C=C\CCCC(=O)O [EPA, Eicosapentaenoic acid] | 537.333 DPM/mg wet weight | 275.667 DPM/mg wet weight | 442.0 DPM/mg wet weight | 504.0 DPM/mg wet weight | .340 μg/mg wet weight | .573 μg/mg wet weight | 5.25 μg/mg wet weight | 2.83 μg/mg wet weight | 1.673 μg/mg wet weight | 1.567 μg/mg wet weight | 17.85 μg/mg wet weight | 8.1 μg/mg wet weight | 16.223 μg/mg wet weight | 1.537 μg/mg wet weight | 2.687 μg/mg wet weight | 2.1 μg/mg wet weight | 15.883 μg/mg wet weight | 13.493 μg/mg wet weight | 14.393 μg/mg wet weight | 9.093 μg/mg wet weight | GAG Mean ([3]; Dog 1, C (no additives), 100 μg/ml): 1.590 μg/mg wet weight; GAG Mean ([3]; Dog 1, C (no additives), 300 μg/ml): 1.036 μg/mg wet weight; GAG Mean ([3]; Dog 1, OSM (50 ng/ml oncostatin M), 100 μg/ml): 6.293 μg/mg wet weight; GAG Mean ([3]; Dog 1, OSM, 300 μg/ml): 2.167 μg/mg wet weight; GAG Mean ([3]; Dog 1, RA (10^−6M retinoic acid), 100 μg/ml): 8.677 μg/mg wet weight; GAG Mean ([3]; Dog 1, RA, 300 μg/ml): 1.593 μg/mg wet weight
2 | CC/C=C\C/C=C\C/C=C\C/C=C\C/C=C\C/C=C\CCC(=O)O [DHA, Docosahexaenoic acid] | 156.0 DPM/mg wet weight | 123.333 DPM/mg wet weight | 503.667 DPM/mg wet weight | 564.333 DPM/mg wet weight | .640 μg/mg wet weight | .843 μg/mg wet weight | 8.567 μg/mg wet weight | 6.073 μg/mg wet weight | 1.903 μg/mg wet weight | 1.55 μg/mg wet weight | 11.667 μg/mg wet weight | 11.630 μg/mg wet weight | 21.093 μg/mg wet weight | 19.457 μg/mg wet weight | 2.343 μg/mg wet weight | 2.307 μg/mg wet weight | 24.967 μg/mg wet weight | 16.4 μg/mg wet weight | 11.28 μg/mg wet weight | 11.3 μg/mg wet weight | 
3 | CC/C=C\C/C=C\C/C=C\CCCCCCCC(=O)O [ALA, alpha-linolenic acid] | 246.333 DPM/mg wet weight | 443.0 DPM/mg wet weight | 503.667 DPM/mg wet weight | 393.667 DPM/mg wet weight | 1.12 μg/mg wet weight | .993 μg/mg wet weight | 8.497 μg/mg wet weight | 6.42 μg/mg wet weight | 2.117 μg/mg wet weight | 2.447 μg/mg wet weight | 22.033 μg/mg wet weight | 23.467 μg/mg wet weight | 20.44 μg/mg wet weight | 24.467 μg/mg wet weight | 2.103 μg/mg wet weight | 1.533 μg/mg wet weight | 11.7 μg/mg wet weight | 19.557 μg/mg wet weight | 12.547 μg/mg wet weight | 14.093 μg/mg wet weight | change in GAG release ([3]; Dog 2, OSM treated cultures): not ALA or DHA significantly decreased
